Data published in ChEMBL document CHEMBL3400138, “Synthesis of 3-azabicyclo[3.2.2]nonanes and their antiprotozoal activities” (Bioorg Med Chem Lett, 2015).
≈ marks a conversion by molar mass, not a printed value. Calls of active or inactive are those of the source. The rule behind the calls is not given here.

How the values were obtained:
[1] = Selectivity index, ratio of CC50 for rat L6 cells to IC50 for Trypanosoma brucei rhodesiense STIB900; assay type: functional
Plasmodium berghei [2] = test: Antiplasmodial activity against GFP-transfected Plasmodium berghei ANKA infected in NMRI mouse assessed as mean survival day at 50 mg/kg, ip administered 4, 24, 48 and 72 hrs post infection (reference value: 4 to 6 days); assay type: functional; settings: route intraperitoneal
Plasmodium falciparum = test: Antiplasmodial activity against chloroquine and pyrimethamine resistant Plasmodium falciparum K1 infected in human red blood cells assessed as reduction in parasite viability after 48 hrs by [3H]-hypoxanthine incorporation assay; assay type: functional, organism-based
[3] = tested on: Trypanosoma brucei rhodesiense; test: Antitrypanosomal activity against Trypanosoma brucei rhodesiense STIB900 bloodstream forms after 72 hrs by alamar blue assay; assay type: functional, organism-based; settings: STIB900, 72 h
[4] = Selectivity index, ratio of CC50 for rat L6 cells to IC50 for chloroquine and pyrimethamine resistant Plasmodium falciparum K1; assay type: functional
Plasmodium berghei [5] = test: Antiplasmodial activity against GFP-transfected Plasmodium berghei ANKA infected in NMRI mouse assessed as reduction in parasitemia at 50 mg/kg, ip administered 4, 24, 48 and 72 hrs post infection by FACS analysis; assay type: functional; settings: route intraperitoneal
L6 = test: Cytotoxicity against rat L6 cells after 72 hrs by alamar blue assay; assay type: cell-based; settings: L6, 72 h
Candida parapsilosis = test: Antifungal activity against Candida parapsilosis ATCC 90018 at 100 ug after 48 hrs; assay type: functional, organism-based
[6] = tested on: Mycolicibacterium smegmatis; test: Antimycobacterial activity against Mycobacterium smegmatis ATCC 14468 assessed as inhibition of bacterial growth after 72 hrs by MTT dye based microbroth dilution assay; assay type: functional; settings: ATCC 14468, 72 h
Escherichia coli = test: Antibacterial activity against Escherichia coli ATCC 25922 at 100 ug after 24 hrs; assay type: functional; settings: ATCC 25922, 24 h, read-out: DIZ
Plasmodium berghei [7] = test: Antiplasmodial activity against GFP-transfected Plasmodium berghei ANKA infected in NMRI mouse assessed as mean survival day at 10 mg/kg, ip administered 4, 24, 48 and 72 hrs post infection (reference value: 4 days); assay type: functional; settings: route intraperitoneal
Candida albicans = test: Antifungal activity against Candida albicans ATCC 10231 at 100 ug after 48 hrs; assay type: functional, organism-based
Candida tropicalis = test: Antifungal activity against Candida tropicalis ATCC 13803 at 100 ug after 48 hrs; assay type: functional, organism-based
Proteus mirabilis = test: Antibacterial activity against Proteus mirabilis ATCC 14153 at 100 ug after 24 hrs; assay type: functional; settings: ATCC 14153, 24 h, read-out: DIZ
Plasmodium berghei [8] = test: Antiplasmodial activity against GFP-transfected Plasmodium berghei ANKA infected in NMRI mouse assessed as mean survival day at 20 mg/kg, ip administered 4, 24, 48 and 72 hrs post infection (reference value: 4 days); assay type: functional; settings: route intraperitoneal
Plasmodium berghei [9] = test: Antiplasmodial activity against GFP-transfected Plasmodium berghei ANKA infected in NMRI mouse assessed as reduction in parasitemia administered intraperitoneally 4, 24, 48 and 72 hrs post infection by FACS analysis; assay type: functional
Plasmodium berghei [10] = test: Antiplasmodial activity against GFP-transfected Plasmodium berghei ANKA infected in NMRI mouse assessed as mean survival day at 200 mg/kg, po administered 24 hrs post infection (reference value: 3 days); assay type: functional
[11] = tested on: Staphylococcus epidermidis; test: Antibacterial activity against Staphylococcus epidermidis ATCC 12228 at 100 ug after 24 hrs; assay type: functional, organism-based
[12] = Half life in rat at 10 mg/kg, iv; assay type: ADME, organism-based; parameters: dose 10 mg/kg, route intravenous; settings: in vivo
Enterococcus faecalis = test: Antibacterial activity against Enterococcus faecalis ATCC 14506 at 100 ug after 24 hrs; assay type: functional
Staphylococcus aureus = test: Antibacterial activity against Staphylococcus aureus ATCC 25923 at 100 ug after 24 hrs; assay type: functional
Plasmodium berghei [13] = test: Antiplasmodial activity against GFP-transfected Plasmodium berghei ANKA infected in NMRI mouse assessed as reduction in parasitemia at 100 mg/kg, po administered 4, 24, 48 and 72 hrs post infection by FACS analysis; assay type: functional
hERG (KCNH2) [14] = target: T1, hERG (KCNH2) (Homo sapiens, UniProt Q12809); test: Inhibition of human ERG expressed in HEK293 cells assessed as reduction in tail current at 3 uM and at membrane potential of +20 mV; assay type: cell-based; settings: HEK293 cells that express hERG
T1 sequence (Q12809 whole entry): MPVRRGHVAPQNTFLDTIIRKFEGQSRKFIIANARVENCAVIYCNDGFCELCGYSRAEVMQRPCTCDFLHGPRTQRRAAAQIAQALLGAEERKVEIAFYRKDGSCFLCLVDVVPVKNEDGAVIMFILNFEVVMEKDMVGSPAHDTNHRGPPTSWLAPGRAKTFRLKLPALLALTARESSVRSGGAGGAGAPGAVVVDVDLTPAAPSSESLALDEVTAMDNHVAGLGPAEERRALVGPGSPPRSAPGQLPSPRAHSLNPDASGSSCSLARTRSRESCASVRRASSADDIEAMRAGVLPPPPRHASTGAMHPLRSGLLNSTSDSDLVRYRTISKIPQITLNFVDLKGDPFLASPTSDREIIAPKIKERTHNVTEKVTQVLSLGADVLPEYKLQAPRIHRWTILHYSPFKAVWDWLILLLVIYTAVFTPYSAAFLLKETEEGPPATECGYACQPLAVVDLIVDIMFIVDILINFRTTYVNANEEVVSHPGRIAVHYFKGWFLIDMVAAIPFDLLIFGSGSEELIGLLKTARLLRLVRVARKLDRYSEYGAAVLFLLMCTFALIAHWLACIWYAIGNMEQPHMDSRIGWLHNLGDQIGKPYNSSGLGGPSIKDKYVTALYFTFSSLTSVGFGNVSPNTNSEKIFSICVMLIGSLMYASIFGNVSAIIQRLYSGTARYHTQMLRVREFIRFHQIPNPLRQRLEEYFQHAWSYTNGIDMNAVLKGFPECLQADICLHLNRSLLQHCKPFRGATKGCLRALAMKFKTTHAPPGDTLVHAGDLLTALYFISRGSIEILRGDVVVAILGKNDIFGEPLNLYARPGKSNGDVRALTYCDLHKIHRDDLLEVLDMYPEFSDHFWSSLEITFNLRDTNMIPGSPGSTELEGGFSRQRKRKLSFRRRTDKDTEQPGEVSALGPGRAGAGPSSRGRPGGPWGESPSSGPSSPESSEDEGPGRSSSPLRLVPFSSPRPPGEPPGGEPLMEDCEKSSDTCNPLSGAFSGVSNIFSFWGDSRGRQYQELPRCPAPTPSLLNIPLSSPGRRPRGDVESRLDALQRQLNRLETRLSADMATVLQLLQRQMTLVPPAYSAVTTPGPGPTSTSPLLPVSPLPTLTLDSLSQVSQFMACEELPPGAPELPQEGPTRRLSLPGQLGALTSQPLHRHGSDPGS

Plasmodium berghei [15] = test: Antiplasmodial activity against GFP-transfected Plasmodium berghei ANKA infected in NMRI mouse assessed as reduction in parasitemia at 200 mg/kg, po administered 24 hrs post infection by FACS analysis; assay type: functional
Plasmodium berghei [16] = test: Antiplasmodial activity against orally dosed GFP-transfected Plasmodium berghei ANKA infected in NMRI mouse assessed as reduction in parasitemia by FACS analysis; assay type: functional
[17] = target: Voltage-gated inwardly rectifying potassium channel KCNH2 (Homo sapiens, UniProt Q12809); test: Inhibition of human ERG expressed in HEK293 cells assessed as reduction in tail current at membrane potential of +20 mV; assay type: cell-based
Chain of Voltage-gated inwardly rectifying potassium channel KCNH2 (Q12809 whole entry): as above

Plasmodium berghei [18] = test: Antiplasmodial activity against GFP-transfected Plasmodium berghei ANKA infected in NMRI mouse assessed as mean survival day at 100 mg/kg, po administered 4, 24, 48 and 72 hrs post infection (reference value: 4 days); assay type: functional
Plasmodium berghei [19] = test: Antiplasmodial activity against GFP-transfected Plasmodium berghei ANKA infected in NMRI mouse assessed as mean survival day at 100 mg/kg, po administered 24 hrs post infection (reference value: 3 days); assay type: functional
Plasmodium berghei [20] = test: Antiplasmodial activity against GFP-transfected Plasmodium berghei ANKA infected in NMRI mouse assessed as reduction in parasitemia at 100 mg/kg, po administered 24 hrs post infection by FACS analysis; assay type: functional
Plasmodium berghei [21] = test: Antiplasmodial activity against GFP-transfected Plasmodium berghei ANKA infected in NMRI mouse assessed as reduction in parasitemia at 20 mg/kg, ip administered 4, 24, 48 and 72 hrs post infection by FACS analysis; assay type: functional; settings: route intraperitoneal
Leishmania sp. = test: Antiparasitic activity against Leishmania sp.; assay type: functional, organism-based
Bacillus subtilis = test: Antibacterial activity against Bacillus subtilis ATCC 6051 at 100 ug after 24 hrs; assay type: functional, organism-based
Trypanosoma = test: Antiparasitic activity against Trypanosoma sp.; assay type: functional, organism-based
Klebsiella oxytoca = test: Antibacterial activity against Klebsiella oxytoca ATCC 8724 at 100 ug after 24 hrs; assay type: functional, organism-based
Raoultella planticola = test: Antibacterial activity against Raoultella planticola ATCC 15050 at 100 ug after 24 hrs; assay type: functional, organism-based
Plasmodium berghei [22] = test: Antiplasmodial activity against GFP-transfected Plasmodium berghei ANKA infected in NMRI mouse assessed as reduction in parasitemia at 10 mg/kg, ip administered 4, 24, 48 and 72 hrs post infection by FACS analysis; assay type: functional; settings: route intraperitoneal
Enterococcus faecium = test: Antibacterial activity against Enterococcus faecium ATCC 6057 at 100 ug after 24 hrs; assay type: functional; settings: ATCC 6057, 24 h, read-out: DIZ
hERG (KCNH2) [23] = target: T1, hERG (KCNH2); test: Inhibition of human ERG expressed in HEK293 cells assessed as reduction in tail current at 3 uM and at membrane potential of +0 mV; assay type: cell-based; settings: HEK293 cells that express hERG
Mus musculus = test: Toxicity in GFP-transfected Plasmodium berghei ANKA infected NMRI mouse at 200 mg/kg, po administered 24 hrs post infection; assay type: organism-based; parameters: dose 200 mg/kg, route oral; settings: in vivo

Cl.Clc1ccc(C2CC3(N4CCCCC4)CCNC2C(c2ccc(Cl)cc2)C3)cc1 (racemic)
Ratio IC50 [1]: 124

CN(C)C12CNCC(C(c3ccccc3)C1)C(c1ccccc1)C2.Cl (racemic)
MSD (Plasmodium berghei [2]): 4 days | IC50 (Plasmodium falciparum): 270 nM | IC50 [3]: 1580 nM | Ratio IC50 [4]: 452.2 | Ratio IC50 [1]: 77.3 | inhibition in vivo at 50 mg/kg (Plasmodium berghei [5]): 0% | IC50 (L6): 122000 nM

Cl.c1ccc(C2CC3(N4CCOCC4)CNCC2C(c2ccccc2)C3)cc1 (racemic)
IC50 (Plasmodium falciparum): 650 nM | IC50 [3]: 3840 nM | Ratio IC50 [4]: 66.63 | Ratio IC50 [1]: 11.3 | IC50 (L6): 43300 nM

Cl.c1ccc(C2CC3(N4CCCC4)CNCC2C(c2ccccc2)C3)cc1 (racemic)
MSD (Plasmodium berghei [2]): 15 days | diameter of the inhibition zone (DIZ) (Candida parapsilosis): inactive | MIC [6]: 128 µg/mL | zone of inhibition at 100 µg/disc (Escherichia coli): 10 mm | MSD (Plasmodium berghei [7]): 4 days | diameter of the inhibition zone (DIZ) (Candida albicans): inactive | diameter of the inhibition zone (DIZ) (Candida tropicalis): inactive | zone of inhibition at 100 µg/disc (Proteus mirabilis): 11 mm | MSD (Plasmodium berghei [8]): 10 days | inhibition (Plasmodium berghei [9]): Dose-dependent effect | ED50 (Plasmodium berghei [9]; ip): 17 mg/kg | ED90 (Plasmodium berghei [9]; ip): 40 mg/kg | MSD (Plasmodium berghei [10]): 16 days | diameter of the inhibition zone (DIZ) [11]: inactive | half-life [12]: 18 min | diameter of the inhibition zone (DIZ) (Enterococcus faecalis): inactive | diameter of the inhibition zone (DIZ) (Staphylococcus aureus): inactive | inhibition in vivo at 100 mg/kg (Plasmodium berghei [13]): 97.7% | IC50 (Plasmodium falciparum): 95 nM | IC50 [3]: 1000 nM | inhibition at 3 µM (hERG (KCNH2) [14]): 54.8% | Ratio IC50 [4]: 767.7 | inhibition in vivo at 200 mg/kg (Plasmodium berghei [15]): 66.1% | inhibition (Plasmodium berghei [16]): Dose-dependent effect | ED50 (Plasmodium berghei [16]; po): 75 mg/kg | IC50 [17]: 2630 nM | inhibition (INH) ([17]; human, hek293): Dose-dependent effect | MSD (Plasmodium berghei [18]): 18.6 days | Ratio IC50 [1]: 72.9 | MSD (Plasmodium berghei [19]): 12 days | inhibition in vivo at 100 mg/kg (Plasmodium berghei [20]): 70.5% | inhibition in vivo at 20 mg/kg (Plasmodium berghei [21]): 60.1% | inhibition (Leishmania sp.): Active | diameter of the inhibition zone (DIZ) (Bacillus subtilis): inactive | inhibition (Trypanosoma): Active | diameter of the inhibition zone (DIZ) (Klebsiella oxytoca): inactive | inhibition in vivo at 50 mg/kg (Plasmodium berghei [5]): 94.8% | diameter of the inhibition zone (DIZ) (Raoultella planticola): inactive | inhibition in vivo at 10 mg/kg (Plasmodium berghei [22]): 25.1% | zone of inhibition at 100 µg/disc (Enterococcus faecium): 10 mm | inhibition at 3 µM (hERG (KCNH2) [23]): 45.9% | Activity (Mus musculus): Toxic | IC50 (L6): 72900 nM

Cl.c1ccc(C2CC3(N4CCCCC4)CNCC2C(c2ccccc2)C3)cc1 (racemic)
IC50 (Plasmodium falciparum): 750 nM | IC50 [3]: 2020 nM | Ratio IC50 [4]: 163.1 | Ratio IC50 [1]: 60.5 | IC50 (L6): 122000 nM

Cl.Clc1ccc(C2CC3(N4CCCC4)CNCC2C(c2ccc(Cl)cc2)C3)cc1 (racemic)
IC50 [3]: 260 nM | Ratio IC50 [1]: 35 | IC50 (L6): 9110 nM

Cl.Clc1ccc(C2CC3(N4CCCCC4)CNCC2C(c2ccc(Cl)cc2)C3)cc1 (racemic)
IC50 (Plasmodium falciparum): 370 nM | IC50 [3]: 320 nM | Ratio IC50 [4]: 21.86 | Ratio IC50 [1]: 25.3 | IC50 (L6): 8090 nM

C[C@@H]1CC[C@H]2[C@@H](C)C(=O)O[C@@H]3O[C@@]4(C)CC[C@@H]1[C@]32OO4 [ARTEMISININ]
IC50 (Plasmodium falciparum): 6.4 nM

CCN(CC)CCCC(C)Nc1ccnc2cc(Cl)ccc12 (stereo not given) [CHLOROQUINE]
MSD (Plasmodium berghei [7]): 20 days | inhibition in vivo at 10 mg/kg (Plasmodium berghei [22]): 99.6%

NNC(=O)c1ccncc1 [ISONIAZID]
MIC [6]: 4 µg/mL (≈ 29.2 µM)

NC[C@H]1O[C@H](O[C@H]2[C@H](O)[C@@H](O[C@H]3O[C@H](CO)[C@@H](O)[C@H](N)[C@H]3O)[C@H](N)C[C@@H]2N)[C@H](O)[C@@H](O)[C@@H]1O [KANAMYCIN]
zone of inhibition at 100 µg/disc (Escherichia coli): 20 mm | zone of inhibition at 100 µg/disc (Proteus mirabilis): 20 mm

CC1(C)S[C@@H]2[C@H](NC(=O)Cc3ccccc3)C(=O)N2[C@H]1C(=O)O [PENICILLIN G]
zone of inhibition at 100 µg/disc (Escherichia coli): 15 mm | zone of inhibition at 100 µg/disc (Enterococcus faecalis; ATCC 14506, 24 h, read-out: DIZ): 20 mm | zone of inhibition at 100 µg/disc (Staphylococcus aureus; ATCC 25923, 24 h, read-out: DIZ): 30 mm

NYSTATIN
inhibition zone (IZ) (Candida parapsilosis): 25 mm | inhibition zone (IZ) (Candida tropicalis): 20 mm
